Structures can show the parent of a compound that is named as a salt.
Each molecule was assayed against human FLAP (Homo sapiens (Human), UniProt P20292) (assay: FLAP binding assay (HTRF format)). Conditions: human FLAP wild type, HTRF format; average of two plates, duplicates.
Protocol: The ability of the compounds of the present invention to treat a FLAP-mediated disease and/or disorder, or associated symptoms or complications thereof, was determined using the following procedures. Binding assay data represent the average value obtained from two different assay plates, with samples run in duplicate on each plate. Human whole blood assay data represent a single replicate on an assay plate using whole blood from at least one healthy donor.
Data are expressed as a HTRF ratio.

Sequence of human FLAP (P20292 whole entry): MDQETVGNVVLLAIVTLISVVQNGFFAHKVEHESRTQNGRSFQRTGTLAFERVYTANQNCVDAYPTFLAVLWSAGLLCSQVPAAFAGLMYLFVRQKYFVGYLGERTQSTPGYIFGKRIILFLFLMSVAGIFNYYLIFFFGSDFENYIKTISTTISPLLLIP

Row | SMILES | Ki
1 | CS(=O)(=O)c1ccccc1-c1ccc(-c2ncc(N)nc2C#N)c(F)c1 [Example 3, 6-Amino-3-[3-fluoro-2′-(methylsulfonyl)biphenyl-4-yl]pyrazine-2-carbonitrile] | > 10 µM
2 | CN1C(C)(C)CC(NS(=O)(=O)c2ccccc2-c2ccc(-c3cnc(N)cn3)c(F)c2)CC1(C)C [Example 30, 4′-(5-Aminopyrazin-2-yl)-3′-fluoro-N-(1,2,2,6,6-pentamethylpiperidin-4-yl)biphenyl-2-sulfonamide] | 0.095 µM
3 | Nc1cnc(-c2ccc(-c3ccccc3NS(N)(=O)=O)cc2F)cn1 [Example 33, N-[4′-(5-Aminopyrazin-2-yl)-3′-fluorobiphenyl-2-yl]sulfamide] | 0.304 µM
4 | CCS(=O)(=O)c1ccccc1-c1ccc(-c2cnc(N)cn2)c(F)c1 [Example 191, 5-[2′-(Ethylsulfonyl)-3-fluorobiphenyl-4-yl]pyrazin-2-amine] | 0.658 µM
5 | CC(C)(C)S(=O)(=O)c1ccccc1-c1ccc(-c2cnc(N)cn2)c(F)c1 [Example 194, 5-[2′-(tert-Butylsulfonyl)-3-fluorobiphenyl-4-yl]pyrazin-2-amine] | 0.733 µM
6 | C[C@H](CO)NS(=O)(=O)Cc1ccccc1-c1ccc(-c2cnc(N)cn2)c(F)c1 [Example 225, (R)-1-(4′-(5-Aminopyrazin-2-yl)-3′-fluoro-[1,1′-biphenyl]-2-yl)-N-(1-hydroxypropan-2-yl)-methanesulfonamide hydrochloride] | 0.856 µM
7 | NC(=O)NC1CCN(S(=O)(=O)Cc2ccccc2-c2ccc(-c3cnc(N)cn3)c(F)c2)CC1 [Example 232, 1-[1-({[4′-(5-Aminopyrazin-2-yl)-3′-fluorobiphenyl-2-yl]methyl}sulfonyl)piperidin-4-yl]urea hydrochloride] | 0.358 µM
8 | Nc1cnc(-c2ccc(-c3ccccc3CSc3cccnn3)cc2F)cn1 [Example 239, 5-(3-Fluoro-2′-((pyridazin-3-ylthio)methyl)-[1,1′-biphenyl]-4-yl)pyrazin-2-amine hydrochloride] | 0.006 µM
9 | Nc1ncc(-c2ccc(-c3ccccc3S(=O)(=O)N3CCNCC3)cc2F)cn1 [Example 290, 5-[3-Fluoro-2′-(piperazin-1-ylsulfonyl)biphenyl-4-yl]pyrimidin-2-amine trifluoroacetic acid salt] | 0.94 µM
10 | CC(C)(C)S(=O)(=O)c1ccccc1-c1ccc(-c2cnc(N)nc2)c(F)c1 [Example 293, 5-[2′-(tert-Butylsulfonyl)-3-fluorobiphenyl-4-yl]pyrimidin-2-amine trifluoroacetic acid salt] | > 10 µM
11 | CN(C)S(=O)(=O)c1ccccc1-c1ccc(-c2cnc(N)nc2)c(F)c1 [Example 299, 4′-(2-Aminopyrimidin-5-yl)-3′-fluoro-N,N-dimethylbiphenyl-2-sulfonamide trifluoroacetic acid salt] | 0.121 µM

Continued, values first:

Row | Ki | SMILES
12 | 2.5 µM | Nc1ncc(-c2ccc(-c3ccccc3S(N)(=O)=O)cc2F)cn1 [Example 302, 4′-(2-Aminopyrimidin-5-yl)-3′-fluorobiphenyl-2-sulfonamide trifluoroacetic acid salt]
13 | 0.612 µM | Nc1ncc(-c2ccc(-c3ccccc3S(=O)(=O)N3CCOCC3)cc2F)cn1 [Example 303, 5-[3-Fluoro-2′-(morpholin-4-ylsulfonyl)biphenyl-4-yl]pyrimidin-2-amine trifluoroacetic acid salt]
14 | 0.397 µM | Nc1ncc(-c2ccc(-c3ccccc3S(=O)(=O)N3CCNC(=O)C3)cc2F)cn1 [Example 306, 4-{[4′-(2-Aminopyrimidin-5-yl)-3′-fluorobiphenyl-2-yl]sulfonyl}piperazin-2-one trifluoroacetic acid salt]
15 | > 10 µM | C[C@H](NS(=O)(=O)c1ccccc1-c1ccc(-c2cnc(N)nc2)c(F)c1)C(=O)O [Example 308, N-{[4′-(2-Aminopyrimidin-5-yl)-3′-fluorobiphenyl-2-yl]sulfonyl}-L-alanine]
16 | 0.492 µM | Nc1ncc(-c2ccc(-c3ccccc3NS(=O)(=O)N3CCOCC3)cc2F)cn1 [Example 310, N-[4′-(2-Aminopyrimidin-5-yl)-3′-fluorobiphenyl-2-yl]morpholine-4-sulfonamide]
17 | 0.747 µM | CN(C)S(=O)(=O)Nc1ccccc1-c1ccc(-c2cnc(N)nc2)c(F)c1 [Example 311, N′-[4′-(2-Aminopyrimidin-5-yl)-3′-fluorobiphenyl-2-yl]-N,N-dimethylsulfamide]

Same assay, conditions: read-out: FLAP Binding wild type HTRF Ki

Row | SMILES | Ki
18 | Nc1cnc(-c2ccc(-c3ccccc3CS(=O)(=O)N3CCNC(=O)C3)cc2F)cn1 [Example 223, 4-({[4′-(5-Aminopyrazin-2-yl)-3′-fluorobiphenyl-2-yl]methyl}sulfonyl)piperazin-2-one formic acid salt] | 0.663 µM
19 | CS(=O)(=O)c1ccccc1-c1ccc(-c2cnc(N)nc2)c(F)c1 [Example 304, 5-[3-Fluoro-2′-(methylsulfonyl)biphenyl-4-yl]pyrimidin-2-amine trifluoroacetic acid salt] | > 10 µM

Same assay, conditions: wild type FLAP, HTRF format

Row | Ki | SMILES
20 | 0.557 µM | CC(O)C1CN(C(=O)c2ccccc2-c2ccc(-c3cnc(N)cn3)c(F)c2)CCO1 (mixture of isomers) [Example 758, 1-(4-{[4′-(5-Aminopyrazin-2-yl)-3′-fluorobiphenyl-2-yl]carbonyl}morpholin-2-yl)ethanol (Diastereomeric Mixture)]
21 | > 10 µM | CC(O)C1CN(C(=O)c2ccccc2-c2ccc(-c3cnc(N)nc3)c(F)c2)CCO1 (mixture of isomers) [Example 759, 1-(4-{[4′-(2-Aminopyrimidin-5-yl)-3′-fluorobiphenyl-2-yl]carbonyl}morpholin-2-yl)ethanol (diastereomeric mixture)]
22 | > 10 µM | Nc1ncc(-c2ccc(-c3ccccc3C(=O)NC3CCC(O)CC3)cc2F)cn1 (mixture of isomers) [Example 765, (cis/trans) 4′-(2-Aminopyrimidin-5-yl)-3′-fluoro-N-(4-hydroxycyclohexyl)biphenyl-2-carboxamide]
23 | > 10 µM | CC1CN(C(=O)c2ccccc2-c2ccc(-c3cnc(N)nc3)c(F)c2)CC(C)O1 (mixture of isomers) [Example 780, 5-{2′-[(2,6-Dimethylmorpholin-4-yl)carbonyl]-3-fluorobiphenyl-4-yl}pyrimidin-2-amine (Diastereoisomeric Mixture)]
24 | > 10 µM | C[S+]([O-])c1ccccc1-c1ccc(-c2cnc(N)cn2)c(F)c1 (racemic) [Example 700, racemic 5-[3-Fluoro-2′-(methylsulfinyl)biphenyl-4-yl]pyrazin-2-amine]
25 | 1.91 µM | Nc1ncc(-c2ccc(-c3ccccc3C(=O)N3CCOC(C(F)(F)F)C3)cc2F)cn1 (racemic) [Example 766, racemic 5-(3-Fluoro-2′-{[2-(trifluoromethyl)morpholin-4-yl]carbonyl}biphenyl-4-yl)pyrimidin-2-amine]
26 | > 10 µM | Nc1ncc(-c2ccc(-c3ccccc3C(=O)N3CCOC(CO)C3)cc2F)cn1 (racemic) [Example 799, racemic [2-[4-(2-Aminopyrimidin-5-yl)-3-fluoro-phenyl]phenyl]-[2-(hydroxymethyl)morpholin-4-yl]methanone]
27 | 1.4 µM | CC(CO)Oc1ncccc1-c1ccc(-c2cnc(N)nc2)c(F)c1 (stereo in doubt) [Example 656, (2R)-2-({3-[4-(2-Aminopyrimidin-5-yl)-3-fluorophenyl]pyridin-2-yl}oxy)propan-1-ol]
